Where two headings read alike, the source gives them in different places.
Columns and labels:
[1] = system: TNF; test: PBMC assay: TNF cytokine level after LPS stimulation; format: cell-based; settings: human PBMCs, 30 min compound, 100 ng/ml LPS for 6 hrs, MSD
Procedure: (§1) Peripheral venous blood was collected from healthy individuals and human peripheral blood mononuclear cells (PBMCs) were isolated from blood by Ficoll-Histopaque (Sigma-Aldrich, A0561) density gradient centrifugation. After isolation, PBMCs were stored in liquid nitrogen for later use. Upon thawing, PBMC cell viability was determined in growth medium (RPMI media supplemented with 10% fetal bovine serum, 1% Pen-Strep and 1% L-glutamine). Compounds were spotted in a 1:3 serial dilution in DMSO and diluted to the final concentration in 30 μl medium in 96 well plates (Falcon, 353072). PBMCs were added at a density of 7.5×10^4 cells per well and incubated for 30 min in a 5% CO2 incubator at 37° C. LPS stimulation was performed by addition of 100 ng/ml LPS (final concentration, Invivogen, tlrl-smlps) for 6 hrs followed by collection of cellular supernatant and the analysis of IL-1β (μM) and TNF cytokines levels (μM) via MSD technology according to manufacturers' guidelines (MSD, K151A0H).
(§2) IC50 and AC50 values (for […]) and EC50 and AC50 values (TNF) were obtained on compounds of the invention/examples, and the AC50 values are depicted in the following table: […]

[2] = system: IL-1β; test: PBMC assay: IL-1β release after LPS stimulation; format: cell-based; settings: human PBMCs, 30 min compound, 100 ng/ml LPS for 6 hrs, MSD, read-out: IL1β AC50
Procedure: The activity of a compound according to the present invention can be assessed by in vitro methods.
as §1, §2

Structure (SMILES) | AC50 ([1]; PBMC) | AC50 ([2]; PBMC) | AC50 [1] | AC50 [2]
CC(C)COc1cc(=O)n(CC(=O)Nc2ccc3nncn3n2)nc1N(C)C [Compound 58] | > 10 µM | 0.15 µM | – | –
CC(C)COc1cc(=O)n(CC(=O)NC23CC(CS(C)(=O)=O)(C2)C3)nc1C(C)C [Compound 112] | > 20 µM | 1.55 µM | – | –
CC(C)c1nn(CC(=O)Nc2ccc3nncn3c2)c(=O)cc1OC(C)C(F)(F)F (stereo not shown) [Compound 20F] | > 10 µM | 1.29 µM | – | –
CC(C)COc1cc(=O)n(NC23CCC(O)(CC2)C3)nc1C(C)C [Compound 59] | – | – | > 20 µM | 0.16 µM
CC(C)COc1cc(=O)n(CC(=O)Nc2ccc3nncn3n2)nc1OCC(C)C [Compound 108] | > 20 µM | 1.33 µM | – | –
Cc1noc(C23CC(NC(=O)Cn4nc(C(C)C)c(OCC(C)C)cc4=O)(C2)C3)n1 [Compound 90, 2-(4-isobutoxy-3-isopropyl-6-oxopyridazin-1(6H)-yl)-N-(3-(3-methyl-1,2,4-oxadiazol-5-yl)bicyclo[1.1.1]pentan-1-yl)acetamide] | > 20 µM | 0.68 µM | – | –
CCCS(=O)(=O)C12CC(NC(=O)Cn3nc(C(C)C)c(OCC(C)C)cc3=O)(C1)C2 [Compound 78, 2-(4-isobutoxy-3-isopropyl-6-oxopyridazin-1(6H)-yl)-N-(3-(propylsulfonyl)bicyclo[1.1.1]pentan-1-yl)acetamide] | > 20 µM | 0.42 µM | – | –
CC(C)COc1cc(=O)n(CC(=O)Nc2nc3ccc(C(F)(F)F)cn3n2)nc1C(C)C [Compound 124] | > 20 µM | 3.4 µM | – | –
CC(C)COc1cc(=O)n(CC(=O)Nc2nc3ccc(F)cc3n2C)nc1C(C)C [Compound 136] | > 10 µM | > 10 µM | – | –
CC(C)c1nn(CC(=O)Nc2ccc3nncn3c2)c(=O)cc1OC1CNC1 [Compound 161] | > 20 µM | > 20 µM | – | –
Cc1c(OCC(C)C)c(C(C)C)nn(CC(=O)Nc2ccc3nncn3n2)c1=O [Compound 42] | 9.41 µM | 0.05 µM | – | –
CC(C)COc1cc(=O)n(CC(=O)NC23CC(N)(C2)C3)nc1C(C)C [Compound 117] | > 20 µM | 2.04 µM | – | –
CC(C)COc1cc(=O)n(CC(=O)NC23CCC(NC(=O)OC(C)(C)C)(C2)C3)nc1C(C)C [Compound 115] | > 20 µM | 1.88 µM | – | –
CN(C)c1nn(CC(=O)Nc2ccc3nncn3n2)c(=O)cc1OCC(F)(F)F [Compound 95] | 18.2 µM | 0.79 µM | – | –
CC(C)COc1cc(=O)n(CC(=O)Nc2nc3cccnc3o2)nc1C(C)C [Compound 144] | > 20 µM | > 20 µM | – | –
CC(C)COc1cc(=O)n(CC(=O)NC23CC(S(C)(=O)=O)(C2)C3)nc1C(C)C [Compound 101] | > 20 µM | 1.02 µM | – | –
CC(C)COc1c(C(C)C)nn(CC(=O)Nc2ccc3nncn3n2)c(=O)c1C(F)F [Compound 62] | 3.75 µM | 0.18 µM | – | –
CC(C)COc1cc(=O)n(CC(=O)Nc2ccncc2F)nc1C(C)C [Compound 52] | > 20 µM | 0.09 µM | – | –
Cc1c(OCc2ccccc2)c(C(C)C)nn(CC(=O)Nc2ccc3nncn3c2)c1=O [Compound 152] | > 20 µM | > 20 µM | – | –
CC(C)c1nn(CC(=O)Nc2ccc3nncn3c2)c(=O)cc1OC1COC1 [Compound 13F] | > 10 µM | > 15 µM | – | –

Structure (SMILES) | AC50 ([1]; PBMC) | AC50 ([2]; PBMC) | AC50 [1] | AC50 [2]
CC(C)COc1cc(=O)n(CC(=O)NC23CC(C)(C2)C3)nc1C(C)C [Compound 92] | > 20 µM | 0.71 µM | – | –
CC(C)COc1cc(=O)n(CC(=O)Nc2cc3ccccn3n2)nc1C(C)C [Compound 113] | > 20 µM | 1.79 µM | – | –
CC(C)c1nn(CC(=O)Nc2ccc3nncn3n2)c(=O)cc1OCC1(F)CC1 [Compound 57] | > 20 µM | 0.14 µM | – | –
COC(=O)C12CCC(NC(=O)Cn3nc(C(C)C)c(OCC(C)C)cc3=O)(CC1)C2 [Compound 38] | 12.2 µM | 0.02 µM | – | –
CC(C)c1nn(CC(=O)Nc2ccc3nncn3n2)c(=O)cc1OCC1CC1 [Compound 51] | > 20 µM | 0.09 µM | – | –
CC(C)COc1cc(=O)n(CC(=O)Nc2nc3cc(Cl)ccc3n2C)nc1C(C)C [Compound 150] | > 20 µM | > 20 µM | – | –
CC(C)COc1cc(=O)n(CC(=O)Nc2nc3ccccn3n2)nc1C(C)C [Compound 53] | > 20 µM | 0.1 µM | – | –
CC(C)c1nn(CC(=O)Nc2ccc3nncn3c2)c(=O)cc1OCC(C)(C)C(F)(F)F [Compound 16F] | > 10 µM | 1.56 µM | – | –
CC(C)c1nn(CC(=O)Nc2ccc3nncn3c2)c(=O)cc1OCC1CC(F)(F)C1 [Compound 19F] | > 10 µM | 5.33 µM | – | –
COc1ccn2nc(NC(=O)Cn3nc(C(C)C)c(OCC(C)C)cc3=O)nc2c1 [Compound 80] | – | – | > 20 µM | 0.45 µM
CC(C)COc1cc(=O)n(CC(=O)NC23CCC(C(=O)O)(CC2)CC3)nc1C(C)C [Compound 67] | > 20 µM | 0.24 µM | – | –
CC(Oc1cc(=O)n(CC(=O)Nc2ccc3nncn3c2)nc1C(C)C)C(=O)N(C)C (stereo not shown) [Compound 4F] | > 10 µM | > 15 µM | – | –
CC(C)c1nn(CC(=O)Nc2ccc3nncn3c2)c(=O)cc1OC1CCCC1 [Compound 5F] | > 10 µM | 0.47 µM | – | –
COc1c(C(C)C)nn(CC(=O)Nc2ccc3nncn3c2)c(=O)c1C1CC1 [Compound 28E] | > 10 µM | > 15 µM | – | –
CC(C)c1nn(CC(=O)Nc2ccc3nncn3c2)c(=O)cc1OCC1CCC1 [Compound 7F] | > 10 µM | 0.21 µM | – | –
CC(C)c1nn(CC(=O)Nc2ccc3nncn3c2)c(=O)cc1OC1CCOCC1 [Compound 26F] | > 10 µM | 13.6 µM | – | –
CC(C)c1nn(CC(=O)Nc2ccc3nncn3n2)c(=O)cc1OCC(C)(F)F [Compound 56] | > 20 µM | 0.13 µM | – | –
COc1c(C(C)C)nn(CC(=O)Nc2ccc3nncn3c2)c(=O)c1Br [Compound 29E] | > 10 µM | > 15 µM | – | –
CC(C)c1nn(CC(=O)Nc2ccc3nncn3c2)c(=O)cc1OCC1CC1 [Compound 22F] | > 10 µM | 0.11 µM | – | –
CCC(C)Oc1cc(=O)n(CC(=O)Nc2ccc3nncn3c2)nc1C(C)C (stereo not shown) [Compound 9F] | > 10 µM | 0.56 µM | – | –

Structure (SMILES) | AC50 ([1]; PBMC) | AC50 ([2]; PBMC) | AC50 [1] | AC50 [2]
CC(C)c1nn(CC(=O)Nc2ccc3nncn3c2)c(=O)cc1OCC(F)F [Compound 17F] | > 10 µM | 0.69 µM | – | –
COCC12CC(NC(=O)Cn3nc(C(C)C)c(OCC(C)C)cc3=O)(C1)C2 [Compound 111] | > 20 µM | 1.47 µM | – | –
CC(C)COc1cc(=O)n(CC(=O)Nc2ccc3nncn3c2)nc1C(C)C [Compound 10F] | > 10 µM | 0.06 µM | – | –
CC(C)c1nn(CC(=O)Nc2ccc3nncn3c2)c(=O)cc1OCC1CN(C(=O)OC(C)(C)C)C1 [Compound 2F] | > 10 µM | > 15 µM | – | –
CC(C)c1nn(CC(=O)Nc2ccc3nncn3n2)c(=O)c(Cl)c1OCCC(F)(F)F [Compound 50] | 1.62 µM | 0.09 µM | – | –
CC(C)COc1cc(=O)n(CC(=O)NC23CC(C#N)(C2)C3)nc1C(C)C [Compound 66] | > 20 µM | 0.22 µM | – | –
CC(C)COc1cc(=O)n(CC(=O)Nc2ccc3nncn3n2)nc1C(C)C [Compound 41] | > 20 µM | 0.04 µM | – | –
O=C(Cn1nc(OCC(F)(F)F)c(OCC(F)(F)F)cc1=O)Nc1ccc2nncn2c1 [Compound 156] | > 20 µM | > 20 µM | – | –
CC(C)COc1cc(=O)n(CC(=O)Nc2nc3cc(C#N)ccc3n2C)nc1C(C)C [Compound 148] | > 20 µM | > 20 µM | – | –
CC(C)COc1c(C(C)C)nn(CC(=O)Nc2ccc3nncn3n2)c(=O)c1C(C)O (stereo not shown) [Compound 127] | 19.4 µM | 3.88 µM | – | –
CC(C)COc1cc(=O)n(CC(=O)NC23CCC(NC(=O)OC(C)(C)C)(CC2)CC3)nc1C(C)C [Compound 153] | > 20 µM | > 20 µM | – | –
CN(C)c1nn(CCO)c(=O)cc1OCC1CC1 [Compound 157, 5-(cyclopropylmethoxy)-6-(dimethylamino)-2-(2-hydroxyethyl)pyridazin-3(2H)-one] | > 20 µM | > 20 µM | – | –
CC(C)COc1cc(=O)n(CCO)nc1N(C)C [Compound 158] | > 20 µM | > 20 µM | – | –
CC(C)c1nn(CC(=O)Nc2ccc3nncn3n2)c(=O)c(Cl)c1OCC(C)(F)F [Compound 46] | 8.17 µM | 0.08 µM | – | –
CC(C)c1nn(CC(=O)Nc2ccc3nncn3c2)c(=O)cc1OCC1CS(=O)(=O)C1 [Compound 6F] | > 10 µM | > 15 µM | – | –
CC(C)COc1cc(=O)n(CC(=O)Nc2cn3cc(Br)ncc3n2)nc1C(C)C [Compound 126] | > 20 µM | 3.56 µM | – | –
Cc1cc(NC(=O)Cn2nc(C(C)C)c(OCC(C)C)cc2=O)ccn1 [Compound 65] | > 20 µM | 0.21 µM | – | –
CC(C)COc1cc(=O)n(CC(=O)Nc2ccc3nccn3n2)nc1C(C)C [Compound 49] | > 20 µM | 0.09 µM | – | –
CC(C)COc1cc(=O)n(CC(=O)Nc2nc3ccc(Cl)cc3n2C)nc1C(C)C [Compound 134] | > 10 µM | > 10 µM | – | –

Reference: US20240109905A1, “4-ALKOXY-6-OXO-PYRIDAZINE DERIVATIVES MODULATING NLRP3” (JANSSEN PHARMACEUTICA NV, priority 2021, published 2024)
